The values below come from PubChem BioAssay (NCI).

Some test systems named below: NCI-H23 lung; OVCAR-8 ovarian; TK-10 renal; HCC-2998 colon; UACC-62 melanoma; CCRF-CEM leukemia; NCI-H226 lung; ACHN renal; HOP-92 NSCLC; EKVX NSCLC.
Common to all, as to assay: inhibition of tumour cell growth, NCI panel, 48 h

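Assay format: 96-well plates, 48-hour exposure. GI50 is the concentration that inhibits growth by half. TGI is the concentration that stops growth completely.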

For `Nc1cc(-c2ccc(Cl)cc2)nn1-c1nnc(/C=C/c2ccco2)c(=O)[nH]1`, the GI50 with NCI-H23 lung is 7.73 µM; with OVCAR-8 ovarian, 4.09 µM; with TK-10 renal, 5.6 µM; in the experiment with HCC-2998 colon, 6.6 µM; with UACC-62 melanoma, 5.45 µM; with CCRF-CEM leukemia it was 2.26 µM. Further, the GI50 was 10.1 µM in the experiment with NCI-H226 lung, 3.09 µM with ACHN renal, 2.6 µM in the experiment on HOP-92 NSCLC and 4.11 µM in the experiment on EKVX NSCLC. In addition, the TGI is 63.5 µM with NCI-H23 lung; 33 µM with OVCAR-8 ovarian; 36.1 µM with TK-10 renal; > 84.5 µM in the experiment on HCC-2998 colon; > 58.6 µM in the experiment with UACC-62 melanoma; > 41 µM with CCRF-CEM leukemia. In addition, the TGI with NCI-H226 lung is 67.4 µM; in the experiment with ACHN renal it was 17.7 µM; in the experiment on HOP-92 NSCLC it was 16.7 µM; in the experiment on EKVX NSCLC, > 55.7 µM.

With `CC(=O)[CH-]C(=O)c1ccccc1.CC(=O)[CH-]C(=O)c1ccccc1.CC1(C)OCC(C2OC3OC(C)(C)OC3C2[O-])O1.CC[O-].[Ti+4]` (centres undefined), the GI50 was 15.8 µM with NCI-H23 lung; 11.5 µM in the experiment on OVCAR-8 ovarian; 12.4 µM in the experiment on TK-10 renal; 15.4 µM in the experiment with HCC-2998 colon; 14.2 µM in the experiment with UACC-62 melanoma; 4.71 µM in the experiment on CCRF-CEM leukemia. For the same compound, the GI50 with NCI-H226 lung is 15.2 µM; in the experiment on ACHN renal it was 17.3 µM; with HOP-92 NSCLC, 6.84 µM; with EKVX NSCLC, 6.56 µM. The TGI in the experiment on NCI-H23 lung was 30 µM; with OVCAR-8 ovarian, 26.9 µM; in the experiment with TK-10 renal, 27 µM; with HCC-2998 colon, 29.9 µM; with UACC-62 melanoma, 28.8 µM; in the experiment on CCRF-CEM leukemia it was > 100 µM. For the same compound, the TGI with NCI-H226 lung was determined as 30.1 µM; with ACHN renal, 35.8 µM; in the experiment on HOP-92 NSCLC it was 20.6 µM; in the experiment with EKVX NSCLC, 23.3 µM.

For the compound `Clc1ccc2c(c1)N(c1ncnc3ccc(-c4cnc5[nH]ncc5c4)cc13)CC2`, the GI50 in the experiment on NCI-H23 lung is 2.68 µM; in the experiment with OVCAR-8 ovarian, 0.966 µM; with TK-10 renal, 0.835 µM; in the experiment with HCC-2998 colon it was 1.07 µM; in the experiment on UACC-62 melanoma it was 0.46 µM; in the experiment with CCRF-CEM leukemia, 0.547 µM. In addition, the GI50 with NCI-H226 lung was 0.896 µM; in the experiment with ACHN renal it was 0.317 µM; in the experiment on HOP-92 NSCLC it was 0.169 µM; with EKVX NSCLC it was 0.338 µM. The TGI in the experiment with NCI-H23 lung, in the experiment on OVCAR-8 ovarian, in the experiment on TK-10 renal, with HCC-2998 colon, in the experiment on UACC-62 melanoma and in the experiment on CCRF-CEM leukemia was > 100 µM each time. For the same compound, the TGI in the experiment on NCI-H226 lung, with ACHN renal, in the experiment on HOP-92 NSCLC and in the experiment with EKVX NSCLC was > 100 µM in each case.

With `Cc1cccc(N(CC(=O)O)S(=O)(=O)c2ccccc2)c1`, the TGI in the experiment on NCI-H23 lung, in the experiment on OVCAR-8 ovarian, with TK-10 renal, with HCC-2998 colon, with UACC-62 melanoma and in the experiment with CCRF-CEM leukemia was > 100 µM throughout. The TGI in the experiment with NCI-H226 lung, in the experiment on ACHN renal, in the experiment with HOP-92 NSCLC and in the experiment on EKVX NSCLC was > 100 µM in each case.

As for `CCCCCCCCCCCCCC[n+]1cccc(C(N)=O)c1`, the GI50 in the experiment with NCI-H23 lung is 2.28 µM; with OVCAR-8 ovarian, 2.12 µM; with TK-10 renal it was 0.675 µM; in the experiment on HCC-2998 colon, 2.2 µM; in the experiment with UACC-62 melanoma, 1.15 µM; with CCRF-CEM leukemia, 1.5 µM. Also, the GI50 was 1.63 µM in the experiment on NCI-H226 lung, 3.46 µM in the experiment with ACHN renal, 0.657 µM in the experiment with HOP-92 NSCLC and 1.97 µM with EKVX NSCLC. Besides, the TGI in the experiment on NCI-H23 lung worked out at 13.6 µM; with OVCAR-8 ovarian it was 6.22 µM; with TK-10 renal, 2.02 µM; in the experiment on UACC-62 melanoma, 3.48 µM; in the experiment on CCRF-CEM leukemia, 4.47 µM; with NCI-H226 lung, 5.11 µM. For the same compound, the TGI worked out at 17.9 µM with ACHN renal, 3.49 µM with HOP-92 NSCLC and 6.08 µM with EKVX NSCLC.

Consider `COc1ccc(C2Oc3c(c(O)cc4c3[C@H](c3ccc(O)cc3O)[C@H](O)C(c3ccc(O)c(O)c3)O4)C[C@@H]2O)cc1O` (some centres undefined), for which the TGI in the experiment with NCI-H23 lung, in the experiment on OVCAR-8 ovarian, in the experiment with TK-10 renal, in the experiment on HCC-2998 colon, in the experiment on UACC-62 melanoma and with CCRF-CEM leukemia was > 100 µM each time. The TGI in the experiment on NCI-H226 lung, with ACHN renal, in the experiment on HOP-92 NSCLC and in the experiment with EKVX NSCLC was > 100 µM in each case.

As for `COc1ccc2c(NCCCCCCNc3c4ccccc4nc4cc(OC)ccc34)c3ccccc3nc2c1`, the TGI with NCI-H23 lung is 0.819 µM; with OVCAR-8 ovarian it was 11 µM; in the experiment with TK-10 renal, 4.56 µM; with HCC-2998 colon it was 0.451 µM; with UACC-62 melanoma, 1.59 µM; in the experiment on CCRF-CEM leukemia, 0.549 µM. In addition, the TGI turned out to be 3.49 µM in the experiment on NCI-H226 lung, 1.01 µM in the experiment with ACHN renal, 2.07 µM with HOP-92 NSCLC and 2.53 µM in the experiment with EKVX NSCLC.

Take `N#Cc1c(-c2ccco2)cc(-c2ccccc2)[nH]c1=O`: the TGI in the experiment with NCI-H23 lung, in the experiment on OVCAR-8 ovarian, in the experiment with TK-10 renal, with HCC-2998 colon, in the experiment with UACC-62 melanoma and with CCRF-CEM leukemia was > 100 µM each time. Further, the TGI in the experiment with NCI-H226 lung, with ACHN renal, in the experiment on HOP-92 NSCLC and in the experiment with EKVX NSCLC was > 100 µM in each case.
